Experimental data: patent publication US7521540B2, “CYR61 compositions and methods” (Munin Corporation, priority 1996, dated 2009)

What was measured:
[1] = tested on: 1064SK primary human foreskin fibroblasts; test: Fibroblast adhesion assay (methylene blue, A620); format: cell-based; conditions: for 1064SK adhesion to Cyr61-coated wells with agent: Cyr61 2 μg/ml, agent at the level stated in the block, Mg2+ 5.0 mM after EDTA; for 1064SK adhesion to Type I collagen-coated wells with agent: Type I collagen 2 μg/ml; for 1064SK adhesion to vitronectin-coated wells with agent: vitronectin 0.5 μg/ml; for concentration that inhibited cell adhesion to Cyr61: in cell suspension
Experimental: The ability of Cyr61 to mediate cell adhesion in normal fibroblasts was investigated. Microtiter wells were coated with purified recombinant Cyr61 protein, and 1064SK primary human foreskin fibroblasts were allowed to adhere under serum-free conditions. […] 50 μl cell suspensions were plated on microtiter wells coated with varying concentrations (0.5-5.0 μg/ml) of Cyr61 protein. After incubation at 37° C. for 30 minutes, adherent cells were fixed and stained with methylene blue.
In another experiment, microtiter wells were coated with either BSA, Cyr61 (2 μg/ml), or vitronectin (VN; 0.5 μg/ml) and blocked with affinity-purified anti-Cyr61 antibodies for one hour at 37° C. before 1064SK cells were plated.
The effects of divalent cations in cell adhesion to Cyr61 was also investigated. […] Data are means from triplicate determinations. […] Inhibition by Ca^2+ is characteristic of adhesion through some members of the β1 family of integrins, including receptors that bind type I collagen, laminin, and vitronectin (integrins α2β1, α6β1, and αVβ1) in fibroblasts, as well as the lymphocyte-specific integrin αLβ2.
The effects of RGD peptides on Cyr61-mediated fibroblast binding was tested by plating cells in wells coated with Cyr61 (2 μg/ml). Type I collagen (2 μg/ml) or vitronectin (0.5 μg/ml), 2 mM GRGDSP or GRGESP peptide was then added.
Cells were also pre-incubated with 40 μg/ml monoclonal antibodies against the integrin α5 or the integrin αV subunits at room temperature for 30 minutes, then plated on wells coated with Cyr61 (2 μg/ml), vitronectin (0.5 μg/ml) or fibronectin (FN, 1 μg/ml). […] The data are means, representative of three experiments.
The 1064 SK cells were also analyzed using the monoclonal antibody JBIA, which binds the β1 integrin subunit. Cells were pre-incubated with the antibody (50 μg/ml) before plating on microtiter wells coated with Cyr61 (2 μg/ml), Type I collagen (2 μg/ml), or vitronectin (0.5 μg/ml). […] Data are means, representative of three experiments.
To identify the specific β1 integrin that mediates fibroblast adhesion to Cyr61, the inhibitory effects of function-blocking monoclonal antibodies were tested against various integrin α subunits. […] The data are means, representative of at least three experiments.

[2] = tested on: Human Microvascular Endothelial Cells; test: In vitro migration assay for angiogenesis inhibitors; format: cell-based; conditions: for migrating cells per set of three high-powered fields, Cyr61 plus compound: Cyr61 1 μg/ml plus 10 mM compound
Experimental: As in the preceding Example, human microvascular endothelial cells (Clonetics) were used. In one series of assays, several carbohydrates and carbohydrate derivatives were analyzed. These compounds included 10 mM mannose, 10 mM mannose-6-phosphate, and 10 mM galactose. […] Cyr61 plus galactose induced the migration of approximately 74 cells per set of three high-powered fields. […] The angiogenic activity of basic FGF (10 ng/ml) was also tested, as described above, with and without mannose-6-phosphate. In the presence of 10 mM mannose-6-phosphate, bFGF induced 51 cells per set of three high-powered fields to migrate; in its absence, bFGF induced the migration of approximately 52 cells. […] The effect of mannose-6-phosphate on IGF II activity was anticipated because mannose-6-phosphate is known to compete with IGF II for their common receptor (the IGF II receptor). […] Moreover, because there is an essentially perfect correlation between the in vitro migration assay and the in vivo angiogenesis assay, described below, mannose-6-phosphate has been identified as an inhibitor of angiogenesis based on the results of the assay disclosed herein. Accordingly, the invention contemplates a method of inhibiting angiogenesis comprising the step of administering an inhibitor the angiogenic activity of Cyr61 such as mannose-6-phosphate. Assays such as that described above may also be used to screen for other inhibitors of angiogenesis which may be useful in the treatment of diseases associated with angiogenesis such as cancer, and diseases of the eye which are accompanied by neovascularization.

[3] = tested on: platelets; test: Platelet adhesion assay; format: cell-based, human
Experimental: Microtiter wells were coated with purified recombinant Fisp12/mCTGF or Cyr61, and the adhesion of isolated platelets to these proteins was detected with ^125I-mAb15, an anti-β3 monoclonal antibody (Frelinger et al., J. Biol. Chem 265:6346-6352 [1990]). Platelets were obtained from venous blood drawn from healthy donors and collected into acid-citrate-dextrose (ACD). Washed platelets were prepared by diffenential centrifugation as described (Kinlough-Rathbone et al. Thromb. Haemostas 2:291-308 [1997]), and finally resuspended in HEPES-Tyrode's buffer (5 mM HEPES, pH 7.35, 1 mM MgCl2, 1 mM CaCl2, 135 mM NaCl, 2.7 mM KCl, 11.9 mM NaHCO3, 1 mg/ml dextrose and 3.5 mg/ml BSA). The platelet concentration was adjusted to […].
Microtiter wells (Immulon 2 removawell strips, Dynex Technologies, Inc.) were coated with Cyr61, Fisp12/mCTGF, or fibrinogen (25 μg/ml, 50 μl/well) incubated overnight at 22° C., and then blocked with 3% BSA at 37° C. for 2 hours. Washed platelets were added to the wells (100 μl/well) in the presence and absence of platelet agonists and incubated at 37° C. for 30 minutes. The wells were washed with HEPES-Tyrode's buffer and adherent platelets were detected with ^125I-mAb15, an anti-β3 monoclonal antibody. Exposure to the labeled antibody ([…], 50 μl/well) proceeded for 1 hour at 22° C. After extensive washing with HEPES-Tyrode's buffer, bound radioactivity was determined by γ-counting. In inhibition studies, washed platelets were pre-incubated with blocking peptides or antibodies at 37° C. for 15 minutes prior to addition to microtiter wells.
The anti-β3 antibody was radioiodinated with carrier-free Na^125I (Amersham Corp.) using the IODO-BEADS iodination reagent (Pierce) to a specific activity of approximately 2 μCi/μg. […] As controls, BSA- and fibrinogen-coated (KabiVitrum Inc.) wells were also used. Initially, the adhesion of unactivated versus activated platelets to immobilized Fisp12/mCTGF and Cyr61 was compared. To ensure that plateltes were not activated during the washing procedures, PGl2 (100 nM), which inhibits activation by raising platelet cAMP levels, was added to the platelet suspensions. […]

[4] = tested on: HUVE cells; test: HUVE cell attachment to murine Cyr61-coated plates; format: cell-based, human; conditions: Cyr61-coated surfaces
Experimental: Another embodiment of the invention is directed to the use of Cyr61 to mediate cellular attachment to the extracellular matrix. Induction of cellular adhesion was investigated using murine Cyr61, fibronectin, and bovine serum albumin (BSA). Immunological 96-well plates (Falcon brand) were coated with 50 μl of 0.1% BSA in PBS at 4° C. in the presence of 0-30 μg/ml concentrations of murine Cyr61 or fibronectin. After two hours exposure to the coating solution, non-diluted immune or pre-immune antisera (30 μl/well), or affinity-purified anti-Cyr61 antibodies were added. For some wells, the coating mixture was adjusted to 10 mM DTT or 100 mM HCl. After 16 hours incubation, the coating solution was removed and the well surface was blocked with 1% BSA in phosphate-buffered saline (PBS) for 1 hour at room temperature. HUVE cells were plated in Ham's complete F12K medium [GIBCO-BRL, Inc.; Ham, Proc. Natl. Acacd. Sci. (USA) 53:786 (1965)] at 5×10^3-10^4 cells/well. Cycloheximide was added to 100 μg/ml immediately before plating and monensin was added to 1 μM 14 hours before plating. After a 2-hour incubation at 37° C., the wells were washed with PBS and attached cells were fixed and stained with methylene blue. The attachment efficiency was determined by quantitative dye extraction and measurement of the extract absorbance at 650 nm. Oliver et al., J. Cell. Sci. 92:513-518 (1989).

laminin
1064SK adhesion to coated protein, nothing added ([1]; Cyr61 2, VN 0.5, Type I collagen 2, fibronectin 1, laminin 5 μg/ml): 0.62 A620

[Mg+2] [Mg^2+]
effect of agent on fibroblast adhesion to Cyr61 [1]: had no effect
1064SK adhesion to Cyr61-coated wells with agent [1]: 0.50 A620
1064SK adhesion to Type I collagen-coated wells with agent [1]: 0.58 A620
1064SK adhesion to vitronectin-coated wells with agent [1]: 0.55 A620

IGF-II: Insulin Growth Factor II
migrating cells, chemoattractant without mannose-6-phosphate ([2]; bFGF 10 ng/ml, Cyr61, IGF-II): ~47 cells

GRGDSP
1064SK adhesion to Cyr61-coated wells with agent [1]: ~0.48 A620
1064SK adhesion to Type I collagen-coated wells with agent [1]: 0.47 A620
1064SK adhesion to vitronectin-coated wells with agent [1]: 0.05 A620
effect of agent on activated platelet adhesion to Cyr61 and Fisp12/mCTGF [3]: specifically inhibited

[Na+].[O-][Cl+2]([O-])[O-] [sodium chlorate]
inhibition of cell adhesion to other substrates ([1]; 40 mM, fibronectin, type I collagen, vitronectin, laminin): 10-20%
inhibition of cell adhesion to Cyr61 ([1]; sodium chlorate 40 mM): 90%

O=C[C@@H](O)[C@@H](O)[C@H](O)[C@H](O)COP(=O)(O)O [mannose-6-phosphate]
migrating cells induced by Cyr61 in presence of compound [2]: approximately 12 cells
migrating cells induced by IGF-II in presence of compound [2]: ~11 cells
migrating cells per set of three high-powered fields, Cyr61 plus compound [2]: approximately 2 cells
migrating cells induced by bFGF in presence of compound ([2]; bFGF 10 ng/ml, 10 mM compound): 51 cells

RGES [reference compound]
effect of agent on adhesion of ADP-activated platelets to fibrinogen [3]: not by RGES or LM609

C[C@@H]1C[C@@H]([C@H](O)CC2CC(=O)NC(=O)C2)C(=O)[C@@H](C)C1 [cycloheximide]
effect of agent on HUVE cell adhesion to Cyr61 [4]: insensitive

Chondroitin sulfate C [chondroitin C]
inhibition of adhesion to Cyr61 ([1]; 0.01-1000 μg/ml): failed to inhibit adhesion to Cyr61 at all concentrations tested

[Ca+2] [Ca^2+]
effect of agent on fibroblast adhesion to Cyr61 [1]: abolished cell adhesion to Cyr61 competely

O=C(O)CN(CCOCCOCCN(CC(=O)O)CC(=O)O)CC(=O)O [EGTA]
effect of agent on HUVE cell adhesion to Cyr61 [4]: completely abolished

O=C[C@H](O)[C@@H](O)[C@@H](O)[C@H](O)CO [galactose]
migrating cells per set of three high-powered fields, Cyr61 plus compound [2]: approximately 74 cells

GRGESP
1064SK adhesion to Cyr61-coated wells with agent [1]: ~0.46 A620
1064SK adhesion to Type I collagen-coated wells with agent [1]: 0.49 A620
1064SK adhesion to vitronectin-coated wells with agent [1]: 0.41 A620

chondroitinase A, B, C
1064SK adhesion to Cyr61-coated wells with agent [1]: 0.57 A620
1064SK adhesion to fibronectin-coated wells with agent ([1]; fibronectin 1 μg/ml): 0.65 A620
1064SK adhesion to vitronectin-coated wells with agent [1]: 0.69 A620

[Mn+2] [Mn^2+]
effect of agent on fibroblast adhesion to Cyr61 [1]: had no effect

CC[C@@]1([C@@H]2O[C@@H]([C@H]3O[C@@](O)(CO)[C@H](C)C[C@@H]3C)C[C@@H]2C)CC[C@H]([C@]2(C)CC[C@]3(C[C@H](O)[C@@H](C)[C@@H]([C@@H](C)[C@@H](OC)[C@H](C)C(=O)O)O3)O2)O1 [monensin]
effect of agent on HUVE cell adhesion to Cyr61 [4]: insensitive

Chondroitin sulfate B (Dermatan sulfate) [chondroitin B]
concentration that inhibited cell adhesion to Cyr61 [1]: 10 µg/mL

O=S(=O)([O-])[O-].[Mg+2] [MgSO4, magnesium sulfate]
effect of agent on fibroblast adhesion to Cyr61 [1]: resuced

Chondroitin sulfate A [chondroitin A]
concentration that inhibited cell adhesion to Cyr61 [1]: 1000 µg/mL

heparan sulfate
concentration that inhibited cell adhesion to Cyr61 [1]: 0.1 µg/mL

CCCCC[C@H](O)/C=C/[C@@H]1[C@H]2C/C(=C/CCCC(=O)O)O[C@H]2C[C@H]1O [PGl2]
effect of agent on activated platelet adhesion to Cyr61 and Fisp12/mCTGF [3]: significantly inhibited
